“And” between values parts separate entries of the source, which are not always exact repeats. Identical values can stand only once. ± gives the expanded uncertainty stated by the source.
Tests used:
[1] = Liquid, Ebulliometric method (Recirculating still)
[2] = refractive index (Na D-line) (dimensionless); settings: 293.15 K; 101.33 kPa; Liquid; Standard Abbe refractometry

SMILES	vapor or sublimation pressure ([1]; 313.15 K) [kPa]	vapor or sublimation pressure ([1]; 335.15 K) [kPa]	vapor or sublimation pressure ([1]; 343.15 K) [kPa]	vapor or sublimation pressure ([1]; 363.15 K)	vapor or sublimation pressure ([1]; 380.15 K) [kPa]	vapor or sublimation pressure ([1]; 399.53 K) [kPa]	vapor or sublimation pressure ([1]; 425.91 K) [kPa]	vapor or sublimation pressure ([1]; 448.97 K) [kPa]	refractive index [2]	vapor or sublimation pressure ([1]; 337.8 K) [kPa]	vapor or sublimation pressure ([1]; 355.78 K) [kPa]	vapor or sublimation pressure ([1]; 371.94 K) [kPa]
CN1CCCC1=O [N-methylpyrrolidone]	0.13 ± 0.13	0.51 ± 0.13	0.79 ± 0.26	2.18 ± 0.26 kPa and 2.17 ± 0.26 kPa	4.98 ± 0.27	10 ± 0.34	25 ± 0.61	50 ± 1.1	1.4703 ± 0.0004			
CCCCO [butan-1-ol]									1.3992 ± 0.0004	10 ± 0.23	25 ± 0.44	50 ± 0.78
C=CCCCC [hex-1-ene]	45.01 ± 0.48	96.56 ± 0.7		218.59 ± 1.2 kPa					1.3838 ± 0.0004			

Source: the NIST ThermoML archive (doi:10.1021/je500092v)
